Assay results published in the NIST ThermoML archive (doi:10.1016/j.jct.2005.12.006).
Where “and” joins values, the source holds several entries; their conditions need not be identical. Equal entries are not always repeated.

Test: excess molar enthalpy (molar enthalpy of mixing); xn = mol fraction of the nth substance listed
Conditions: 298.15 K, 101 kPa, Liquid, Flow calorimetry

CCCCCC [hexane] + CCCCO
Conditions	excess molar enthalpy [kcal/mol]
x2 = 0.2065	0.128
x2 = 0.2516	0.129
x2 = 0.405	0.133
x2 = 0.5028	0.12
x2 = 0.6056	0.105
x2 = 0.7505	0.0658
x2 = 0.8055	0.0521

CCCCN(CCCC)CCCC [tributylamine] + CCCCCC
Conditions	excess molar enthalpy [kcal/mol]
x1 = 0.05	-0.00112
x1 = 0.0995	-0.00182
x1 = 0.1495	-0.0022
x1 = 0.1997	-0.0022
x1 = 0.2498	-0.0021
x1 = 0.2992	-0.00189
x1 = 0.3498	-0.00167
x1 = 0.3991	-0.00143
x1 = 0.449	-0.00122
x1 = 0.4993	-0.00103
x1 = 0.5488	-0.000837
x1 = 0.599	-0.000645
x1 = 0.6492	-0.000502
x1 = 0.6989	-0.000382
x1 = 0.7495	-0.000311
x1 = 0.7991	-0.000239
x1 = 0.8497	-0.000191
x1 = 0.9	-0.000143
x1 = 0.9501	-9.56e-05

CCCCN(CCCC)CCCC [tributylamine] + CCCCO
Conditions	excess molar enthalpy [kcal/mol]
x2 = 0.0505	0.00913
x2 = 0.1006	0.0104
x2 = 0.1507	0.00648
x2 = 0.2009	0.00115
x2 = 0.2511	-0.00574
x2 = 0.3013	-0.0113
x2 = 0.3519	-0.0181
x2 = 0.4018	-0.024
x2 = 0.4514	-0.0301
x2 = 0.5014	-0.0352
x2 = 0.5513	-0.0402
x2 = 0.6014	-0.0439
x2 = 0.6512	-0.0471
x2 = 0.7011	-0.0489
x2 = 0.7517	-0.0498
x2 = 0.8013	-0.0491
x2 = 0.8514	-0.0465
x2 = 0.9004	-0.0403
x2 = 0.9503	-0.0274
x2 = 0.9698	-0.0182
x2 = 0.9853	-0.0055

CCCCCCCCN(CCCCCCCC)CCCCCCCC [trioctylamine] + CCCCCC
Conditions	excess molar enthalpy
x1 = 0.0312	-0.00115 kcal/mol and -0.00117 kcal/mol and -0.0012 kcal/mol
x1 = 0.0625	-0.0021 kcal/mol and -0.00217 kcal/mol and -0.00208 kcal/mol
x1 = 0.0938	-0.00249 kcal/mol
x1 = 0.125	-0.00294 kcal/mol and -0.00277 kcal/mol
x1 = 0.1875	-0.00301 kcal/mol and -0.00308 kcal/mol
x1 = 0.25	-0.00263 kcal/mol and -0.00253 kcal/mol
x1 = 0.3125	-0.00213 kcal/mol
x1 = 0.375	-0.00179 kcal/mol
x1 = 0.4375	-0.00155 kcal/mol
x1 = 0.4999	-0.00127 kcal/mol
x1 = 0.5625	-0.00098 kcal/mol
x1 = 0.6249	-0.000669 kcal/mol
x1 = 0.625	-0.000693 kcal/mol
x1 = 0.6873	-0.000526 kcal/mol
x1 = 0.75	-0.000406 kcal/mol
x1 = 0.8124	-0.000215 kcal/mol and -0.000167 kcal/mol
x1 = 0.8749	-9.56e-05 kcal/mol
x1 = 0.875	-2.39e-05 kcal/mol
x1 = 0.9374	-4.78e-05 kcal/mol

CCCCCCCCN(CCCCCCCC)CCCCCCCC [trioctylamine] + CCCCO
Conditions	excess molar enthalpy
x2 = 0.0623	0.0383 kcal/mol
x2 = 0.1246	0.053 kcal/mol
x2 = 0.1877	0.0618 kcal/mol
x2 = 0.2503	0.0668 kcal/mol
x2 = 0.3122	0.0689 kcal/mol
x2 = 0.3747	0.0696 kcal/mol
x2 = 0.4373	0.0682 kcal/mol
x2 = 0.5	0.0651 kcal/mol
x2 = 0.5625	0.0615 kcal/mol
x2 = 0.6251	0.0558 kcal/mol
x2 = 0.6876	0.0467 kcal/mol
x2 = 0.7501	0.0353 kcal/mol
x2 = 0.8125	0.0241 kcal/mol
x2 = 0.875	0.0152 kcal/mol and 0.015 kcal/mol
x2 = 0.9375	0.00612 kcal/mol
